The target of series [1] is human histamine H3 receptors (Homo sapiens, UniProt Q9Y5N1). The experiment in a line: H3 binding ([125I]iodoproxyfan, membranes). The following applies: hH3 binding of the radioligand. On the procedure:
Membranes expressing human histamine H3 receptors were incubated 1 hour at room temperature in binding buffer containing 50 mM Na2HPO4/KH2PO4 pH 7.5 in a final volume of 200 µl. […] Non-specific binding was determined in the presence of 1 µM lmetit. The reaction was stopped by rapid filtration through GF/B filters (pre-soaked for 2 hours with 0.3% polyethyleneimine) followed by 3 ice cold binding buffer washes. The filter-bound radioactivity was measured in a liquid scintillation counter with 50µl of scintillation fluid.

Series [2] deals with CYP3A4 (Homo sapiens, UniProt P08684). The experiment in a line: Cytochrome inhibition, fluorometric microtiter plate assay (substrate BFC). Type of series: biochemical. An excerpt: (§1) Among the xenobiotic-metabolizing CYPs, five forms, CYP1A2, CYP2C9, CYP2C19, CYP2D6 and CYP3A4 appear to be the major CYP isoforms responsible for the oxidative metabolism of drugs or xenobiotics. Inhibition of CYP-mediated metabolism, often the mechanism for drug-drug interactions, can limit the use of a drug because of adverse clinical effects. The potential for CYP enzyme inhibition is routinely assessed by performing in vitro inhibition studies by measuring the rates of metabolism of a probe biotransformation in the presence and absence of test molecules. […] The incubation conditions for each cytochrome isoform were as follow: [table]

Series [3] deals with CYP2D6 (Homo sapiens, UniProt P10635). The experiment in a line: Cytochrome inhibition, fluorometric microtiter plate assay (substrate AMMC). Type of series: biochemical.
Text: as §1

Setting [4] is: compounds of the invention, human recombinant CYP3A4.
[5] abbreviates: compounds of the invention, human recombinant CYP2D6.

Read-outs that look alike come from different tables or passages of the source.

CYP2D6, sequence (P10635 whole entry): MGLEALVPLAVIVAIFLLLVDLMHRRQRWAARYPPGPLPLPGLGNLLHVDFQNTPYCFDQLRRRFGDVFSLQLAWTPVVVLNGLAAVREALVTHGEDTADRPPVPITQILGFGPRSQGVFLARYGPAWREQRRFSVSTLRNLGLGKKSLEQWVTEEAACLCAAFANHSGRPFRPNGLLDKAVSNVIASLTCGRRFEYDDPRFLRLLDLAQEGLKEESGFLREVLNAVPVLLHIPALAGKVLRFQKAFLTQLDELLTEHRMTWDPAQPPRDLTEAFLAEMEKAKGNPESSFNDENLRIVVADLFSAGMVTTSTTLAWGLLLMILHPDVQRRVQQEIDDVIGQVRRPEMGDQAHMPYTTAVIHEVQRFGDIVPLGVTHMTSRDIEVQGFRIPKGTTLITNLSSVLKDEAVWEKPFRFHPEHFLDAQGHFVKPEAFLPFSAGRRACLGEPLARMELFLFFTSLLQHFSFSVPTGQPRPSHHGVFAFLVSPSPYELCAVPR
CYP3A4, sequence (P08684 whole entry, canonical isoform): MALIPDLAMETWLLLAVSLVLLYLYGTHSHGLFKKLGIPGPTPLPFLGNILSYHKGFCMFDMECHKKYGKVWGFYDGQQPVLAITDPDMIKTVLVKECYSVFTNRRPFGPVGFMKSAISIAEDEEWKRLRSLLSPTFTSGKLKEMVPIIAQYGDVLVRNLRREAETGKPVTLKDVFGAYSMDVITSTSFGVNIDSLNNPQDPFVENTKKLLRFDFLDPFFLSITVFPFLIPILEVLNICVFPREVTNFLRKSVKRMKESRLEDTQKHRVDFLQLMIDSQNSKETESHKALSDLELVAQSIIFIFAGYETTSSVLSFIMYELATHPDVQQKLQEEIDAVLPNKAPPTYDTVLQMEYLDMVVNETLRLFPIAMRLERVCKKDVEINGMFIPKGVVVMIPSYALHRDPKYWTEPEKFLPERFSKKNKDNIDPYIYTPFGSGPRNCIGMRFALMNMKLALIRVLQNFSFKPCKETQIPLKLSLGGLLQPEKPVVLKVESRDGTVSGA
human histamine H3 receptors, sequence (Q9Y5N1 whole entry): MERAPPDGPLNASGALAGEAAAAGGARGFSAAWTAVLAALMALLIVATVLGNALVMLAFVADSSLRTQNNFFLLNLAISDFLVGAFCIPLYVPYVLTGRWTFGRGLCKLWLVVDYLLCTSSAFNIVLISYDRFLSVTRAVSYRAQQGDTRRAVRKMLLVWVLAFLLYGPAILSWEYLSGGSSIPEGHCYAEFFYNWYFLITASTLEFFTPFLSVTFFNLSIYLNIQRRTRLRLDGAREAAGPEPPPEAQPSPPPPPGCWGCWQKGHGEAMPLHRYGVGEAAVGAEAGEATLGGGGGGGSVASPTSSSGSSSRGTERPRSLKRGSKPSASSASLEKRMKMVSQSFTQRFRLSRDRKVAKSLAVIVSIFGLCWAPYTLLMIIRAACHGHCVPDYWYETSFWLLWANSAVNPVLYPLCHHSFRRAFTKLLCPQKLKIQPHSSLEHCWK

Regarding `Ic1ccc(COCCCc2cnc[nH]2)cc1` [[^125]iodoproxyfan], the equilibrium dissociation constant (Kd) in series [1] is 0.078 ± 0.006 nM. As to `Cc1cc(-c2ccc(OCCCN3CCC[C@H](C)C3)cc2)ccn1` [Example 59], the IC50 is greater than 1000 nM in series [2] (read-out: CYP3A4 (IC50, concentrations for 50% inhibition), comparative compounds of WO 00/06254) and 1000 nM in series [3] (read-out: CYP2D6 (IC50, concentrations for 50% inhibition), comparative compounds of WO 00/06254). For `C[C@H]1C[C@H](C)CN(CCCOc2ccc(C3=NCCC3)cc2)C1` (relative stereo) [Example 17, trans-1-{3-[4-(4,5-dihydro-3H-pyrrol-2-yl)phenoxy]propyl}-3,5-dimethylpiperidine], the IC50 in series [2] (setting [4]) and in series [3] (setting [5]) was greater than 100000 nM throughout. Take `Cc1ccc(-c2ccc(OCCCN3CCCCC3)cc2)cc1` [Example 24, 1-{3-[(4'-methylbiphenyl-4-yl)oxy]propyl}piperidine]: in series [2] (setting [4]), the IC50 is greater than 2000 nM.

With `C[C@H]1C[C@H](C)CN(CCCOc2ccc(C(=O)N(C)C)cc2)C1` (relative stereo) [Example 1, trans-1-{3-[4-(N,N-dimethylcarbamoyl)phenoxy]propyl}-3,5-dimethylpiperidine], the IC50 in series [3] (setting [5]) was greater than 100000 nM.

The values above are taken from patent publication EP1717234A1, “Phenoxypropylpiperidines and -pyrrolidines and their use as histamine H3-receptor ligands” (BIOPROJET, priority 2005, dated 2006).
